Tested on: PKC mediated IL-2 production
Experiment: IL-2 ELISA, human primary T cell, anti CD3+CD28+
Type: cell-based
Settings: Homo sapiens, T-cell, 24 h, human primary T cells stimulated with αCD3 and αCD28, 24 hours
Procedure, shortened: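 Human peripheral blood T cells, pre-expanded with αCD3/αCD28 and IL-2 and then washed free of IL-2, were pre-incubated with compound for 1 h at 37° C. They were then stimulated on plates coated with […] αCD3 and 5 μg/ml αCD28, or with 0.5 ng/ml PMA plus 0.1 uM ionomycin in the counter assay. IL-2 in supernatants was measured by ELISA after 24 h.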

Row | SMILES | EC50
1 | CC1(C)CC(Nc2nc(Nc3ccc(O[C@H]4CCOC4)c(C#N)c3)ncc2F)CC2CCCN21 (mixture of isomers) [Compound 60, 2-((S)-tetrahydrofuran-3-yloxy)-5-(5-fluoro-4-(octahydro-5,5-dimethylindolizin-7-ylamino)pyrimidin-2-ylamino)benzonitrile] | 0.1 to 0.5 µM
2 | [2H]C1(Oc2ccc(Nc3ncc(F)c(N[C@H]4CCN5[C@@H](CCC5(C)C)C4)n3)cc2Cl)CC(OCc2ccccc2)C1 (stereo partly drawn) [Compound 311, N2-(4-(3-(benzyloxy)cyclobutoxy-1-d)-3-chlorophenyl)-N4-((7S,8aS)-3,3-dimethyloctahydroindolizin-7-yl)-5-fluoropyrimidine-2,4-diamine] | 1 to 10 µM
3 | Cn1nnn(-c2cc(Nc3ncc(F)c(N[C@@H]4C[C@@H]5CCCN5C(C)(C)C4)n3)c(F)cc2OC2CCOC2=O)c1=O (stereo partly drawn) [Compound 185, 1-(5-((4-(((7R,8aS)-5,5-dimethyloctahydroindolizin-7-yl)amino)-5-fluoropyrimidin-2-yl)amino)-4-fluoro-2-((2-oxotetrahydrofuran-3-yl)oxy)phenyl)-4-methyl-1,4-dihydro-5H-tetrazol-5-one] | > 10 µM
4 | CC1(C)CC(Nc2nc(Nc3ccc(OC4COC4)c(C#N)c3)ncc2F)CC2CCCN21 (stereo not shown) [Compound 63, 5-(5-Fluoro-4-(octahydro-5,5-dimethylindolizin-7-ylamino)pyrimidin-2-ylamino)-2-(oxetan-3-yloxy)benzonitrile] | 0.1 to 0.5 µM
5 | Cc1nnnn1-c1cc(Nc2ncc(F)c(N[C@@H]3C[C@@H]4CCCN4C(C)(C)C3)n2)ccc1F [Compound 141, N4-((7R,8aS)-5,5-dimethyloctahydroindolizin-7-yl)-5-fluoro-N2-(4-fluoro-3-(5-methyl-1H-tetrazol-1-yl)phenyl)pyrimidine-2,4-diamine] | < 0.1 µM
6 | CCOC(=O)C(C)Oc1cc(F)c(Nc2ncc(F)c(N[C@@H]3C[C@@H]4CCCN4C(C)(C)C3)n2)cc1-n1nnn(C)c1=O (stereo partly drawn) [Compound 184, ethyl 2-(4-((4-(((7R,8aS)-5,5-dimethyloctahydroindolizin-7-yl)amino)-5-fluoropyrimidin-2-yl)amino)-5-fluoro-2-(4-methyl-5-oxo-4,5-dihydro-1H-tetrazol-1-yl)phenoxy)propanoate] | 0.1 to 0.5 µM
7 | CC1(C)C[C@H](Nc2nc(Nc3cccc(C#N)c3)ncc2Cl)C[C@@H]2CCCN21 [Compound 153, 3-((5-chloro-4-(((7R,8aS)-5,5-dimethyloctahydroindolizin-7-yl)amino)pyrimidin-2-yl)amino)benzonitrile] | 0.1 to 0.5 µM
8 | Cn1nnn(-c2cc(Nc3ncc(F)c(N[C@@H]4C[C@@H]5CCCN5C(C)(C)C4)n3)c(F)cc2OCC2CCO2)c1=O (stereo partly drawn) [Compound 167, 1-(5-((4-(((7R,8aS)-5,5-dimethyloctahydroindolizin-7-yl)amino)-5-fluoropyrimidin-2-yl)amino)-4-fluoro-2-(oxetan-2-ylmethoxy)phenyl)-4-methyl-1,4-dihydro-5H-tetrazol-5-one] | 0.1 to 0.5 µM
9 | C[C@@H](CO)Oc1ccc(Nc2ncc(F)c(N[C@@H]3C[C@@H]4CCCN4C(C)(C)C3)n2)cc1-n1nnn(C)c1=O [Compound 135, 1-(5-((4-(((7R,8aS)-5,5-dimethyloctahydroindolizin-7-yl)amino)-5-fluoropyrimidin-2-yl)amino)-2-(((S)-1-hydroxypropan-2-yl)oxy)phenyl)-4-methyl-1,4-dihydro-5H-tetrazol-5-one] | < 0.1 µM

Further lines, results first:

Row | EC50 | SMILES
10 | 0.5 to 1 µM | COc1ccc(Nc2ncc(F)c(N[C@@H]3C[C@@H]4CCCN4C(C)(C)C3)n2)cc1-n1nnn(CCO)c1=O [Compound 280, 1-(5-(4-((7R,8aS)-octahydro-5,5-dimethylindolizin-7-ylamino)-5-fluoropyrimidin-2-ylamino)-2-methoxyphenyl)-4-(2-hydroxyethyl)-1H-tetrazol-5(4H)-one]
11 | 0.1 to 0.5 µM | COC(=O)c1ccc(Nc2ncc(F)c(N[C@@H]3C[C@@H]4CCCN4C(C)(C)C3)n2)cc1C(F)(F)F [Compound 320]
12 | 0.5 to 1 µM | C[S+]([O-])c1nnnn1-c1cccc(Nc2ncc(F)c(N[C@@H]3C[C@@H]4CCCN4C(C)(C)C3)n2)c1 (stereo partly drawn) [Compound 270, 5-fluoro-N4-((7R,8aS)-octahydro-5,5-dimethylindolizin-7-yl)-N2-(3-(5-(methylsulfinyl)-1H-tetrazol-1-yl)phenyl)pyrimidine-2,4-diamine]
13 | 0.5 to 1 µM | Cn1nnn(-c2cc(Nc3ncc(F)c(N[C@@H]4C[C@@H]5CCCN5C(C)(C)C4)n3)c(F)cc2OCCN2CCOCC2)c1=O [Compound 195, 1-(5-((4-(((7R,8aS)-5,5-dimethyloctahydroindolizin-7-yl)amino)-5-fluoropyrimidin-2-yl)amino)-4-fluoro-2-(2-morpholinoethoxy)phenyl)-4-methyl-1,4-dihydro-5H-tetrazol-5-one]
14 | < 0.1 µM | CSc1nnnn1-c1cccc(Nc2ncc(F)c(N[C@@H]3C[C@@H]4CCCN4C(C)(C)C3)n2)c1 [Compound 261, 5-fluoro-N4-((7R,8aS)-octahydro-5,5-dimethylindolizin-7-yl)-N2-(3-(5-(methylthio)-1H-tetrazol-1-yl)phenyl)pyrimidine-2,4-diamine]
15 | < 0.1 µM | COc1ccc(Nc2ncc(F)c(N[C@@H]3C[C@@H]4CCCN4C(C)(C)C3)n2)cc1-n1nnnc1OC1COC1 [Compound 284, 5-fluoro-N4-((7R,8aS)-octahydro-5,5-dimethylindolizin-7-yl)-N2-(4-methoxy-3-(5-(oxetan-3-yloxy)-1H-tetrazol-1-yl)phenyl)pyrimidine-2,4-diamine]
16 | 0.5 to 1 µM | Cn1nnn(-c2cc(Nc3ncc(F)c(N[C@@H]4C[C@@H]5CCCN5C(C)(C)C4)n3)c(F)cc2OCC(O)CO)c1=O (stereo partly drawn) [Compound 199, 1-(2-(2,3-dihydroxypropoxy)-5-((4-(((7R,8aS)-5,5-dimethyloctahydroindolizin-7-yl)amino)-5-fluoropyrimidin-2-yl)amino)-4-fluorophenyl)-4-methyl-1,4-dihydro-5H-tetrazol-5-one]
17 | > 10 µM | COc1ccc(Nc2ncc(F)c(N[C@@H]3C[C@@H]4CCCN4C(C)(C)C3)n2)cc1-n1nn[nH]c1=O [Compound 277, 1-(5-(4-((7R,8aS)-octahydro-5,5-dimethylindolizin-7-ylamino)-5-fluoropyrimidin-2-ylamino)-2-methoxyphenyl)-1H-tetrazol-5(4H)-one]
18 | < 0.1 µM | CC1(C)CC[C@H]2C[C@@H](Nc3nc(Nc4cc(-n5nnnc5C5COC5)c(C5CC5)cc4F)ncc3F)CCN21 [Compound 301, N2-(4-Cyclopropyl-2-fluoro-5-(5-(oxetan-3-yl)-1H-tetrazol-1-yl)phenyl)-N4-((7S,8aS)-3,3-dimethyloctahydroindolizin-7-yl)-5-fluoropyrimidine-2,4-diamine]
19 | < 0.1 µM | CC1(C)C[C@H](Nc2nc(Nc3ccc(OCCO)c(-n4cnnn4)c3)ncc2F)C[C@@H]2CCCN21 [Compound 205, 2-(4-((4-(((7R,8aS)-5,5-dimethyloctahydroindolizin-7-yl)amino)-5-fluoropyrimidin-2-yl)amino)-2-(1H-tetrazol-1-yl)phenoxy)ethan-1-ol]

Source: patent US9682976B2, “Protein kinase C inhibitors and uses thereof” (Rigel Pharmaceuticals, Inc., priority 2012, dated 2017)
